This note sets out measurements from publication PMC12567141, “Design, Synthesis and Biological Evaluation of Pyrazolopyrimidine Derivatives as Aryl Hydrocarbon Receptor Antagonists for Colorectal Cancer Immunotherapy” (Pharmaceutics, 2025).

pIC50: −log10 of the molar value.

Data set [1] relates to AhR nuclear translocation in MC38 cells. Kind of data set: Kynurenine-induced AhR nuclear translocation (Western blot). The settings on record: kynurenine-treated MC38 cells, 24 h. It is filed as cell-based. As to the method:
Cells were harvested and washed twice in cold PBS. Cytoplasmic and nuclear protein were isolated by NE-PER^TM (Thermo Fisher Scientific, Waltham, MA, USA). The procedure was completed according to the kit instructions.
For the extraction of total protein, cells were treated with 7k for 24 h in a CO2 incubator at 37 °C and washed twice with phosphate-buffered saline (PBS). Cell pellets were lysed using radioimmunoprecipitation assay (RIPA) buffer (Thermo Fisher Scientific) containing a protease and phosphatase inhibitor cocktail kit (Thermo Fisher Scientific). The lysed cells were briefly vortexed at intervals and subsequently centrifuged at 13,000× g at 4 °C. The protein sample was quantified with the bicinchoninic acid (BCA) protein assay kit (Thermo Fisher Scientific).
Equal amounts of proteins were loaded onto 10% sodium dodecyl sulfate polyacrylamide gel electrophoresis and transferred onto PVDF membranes (Millipore, Billerica, MA, USA). The membrane was blocked with 5% skim milk in Tris-buffered saline (TBS) containing Tween-20 (TBS-T) for an hour and probed with the respective primary antibodies in 5% BSA overnight at 4 °C. Following incubation, the membrane was probed with horseradish peroxidase (HRP)-conjugated secondary antibodies for an hour at room temperature. […]
In general terms: A western blot detects proteins with antibodies after separation by electrophoresis.

In data set [2] the test system is CD8+ IFNγ + T lymphocytes. Kind of data set: Flow cytometry of CD8+ IFNγ+ T lymphocytes in splenocytes of tumour-bearing mice. The settings on record: vs vehicle or single therapy. Format: in vivo. As to the method: For analysis of CD8+ IFNγ + T lymphocytes, splenocytes were collected from tumour-bearing mice and stimulated with a cell activation cocktail (BioLegend, San Diego, CA, USA) in the presence of Brefeldin A for 6 h. Splenocytes were stained with APC-conjugated CD8 and APC-Cy7-conjugated IFNγ Ab at 4 °C for 30 min (BioLegend). After washing with FACS buffer (Biolegend) three times, the cells were analysed using Becton Dickinson LSRFortessa^TM and analyzed with FlowJo software. Isotype-matched monoclonal antibodies were used as controls. The data were analysed using Flowjo analysis software v11. (Flowjo LLC, Ashland, OR, USA).
Background: In flow cytometry, cells or beads pass a laser one at a time.

For data set [3], the target named is AhR (Danio rerio, UniProt Q9YGV3). Briefly: IC50 determination, Cyp1a dual luciferase reporter assay in transfected COS-7 cells. It is filed as cell-based. The settings on record: AhR2/ARNT-1c/Cyp1a-luciferase, TCDD 10 nM. As to the method: All experiments were conducted as described previously unless stated otherwise. COS-7 cells were seeded onto 24-well plate until approximately 65% confluency. The cells were transfected with ARNT-1c expression plasmid (50 ng), AhR2 expression plasmid (5 ng), Cyp1a-firefly luciferase reporter plasmid (20 ng) and pRL-TK Renilla luciferase plasmid (2 ng) using Lipofectamine 3000 (Thermo Fisher Scientific) according to the manufacturer’s protocol. The pEGFP-C1 plasmid (Clontech, Tempe, AZ, USA) was used to assess the transfection efficiency. At 5 h post transfection, serially diluted test compounds at indicated concentration were added to the cells. Simultaneously, TCDD (10 nM) or indicated compounds with the highest concentration were added in the control wells. At 1 h post compound treatment, TCDD (10 nM) was added to all wells except the control wells. At 18 h post TCDD treatment, the medium was removed, and the cells washed with Dulbecco’s phosphate buffered saline (DPBS) and harvested using 1x Passive Lysis Buffer (Promega, Madison, WI, USA). The dual luciferase assay was carried out using a Dual-Luciferase Reporter Assay System (Promega, Madison, WI, USA) and an Orion L Microplate Luminometer (Titertek Berthold, Pforzheim, BW, Germany) as per manufacturer’s protocol. The relative light unit (RLU) values were normalized and expressed as toxic induced ratio (TIR). IC50 was determined using Prism 9.0 (GraphPad Software).
Chain of AhR (Danio rerio, UniProt Q9YGV3) (Q9YGV3 1-1027): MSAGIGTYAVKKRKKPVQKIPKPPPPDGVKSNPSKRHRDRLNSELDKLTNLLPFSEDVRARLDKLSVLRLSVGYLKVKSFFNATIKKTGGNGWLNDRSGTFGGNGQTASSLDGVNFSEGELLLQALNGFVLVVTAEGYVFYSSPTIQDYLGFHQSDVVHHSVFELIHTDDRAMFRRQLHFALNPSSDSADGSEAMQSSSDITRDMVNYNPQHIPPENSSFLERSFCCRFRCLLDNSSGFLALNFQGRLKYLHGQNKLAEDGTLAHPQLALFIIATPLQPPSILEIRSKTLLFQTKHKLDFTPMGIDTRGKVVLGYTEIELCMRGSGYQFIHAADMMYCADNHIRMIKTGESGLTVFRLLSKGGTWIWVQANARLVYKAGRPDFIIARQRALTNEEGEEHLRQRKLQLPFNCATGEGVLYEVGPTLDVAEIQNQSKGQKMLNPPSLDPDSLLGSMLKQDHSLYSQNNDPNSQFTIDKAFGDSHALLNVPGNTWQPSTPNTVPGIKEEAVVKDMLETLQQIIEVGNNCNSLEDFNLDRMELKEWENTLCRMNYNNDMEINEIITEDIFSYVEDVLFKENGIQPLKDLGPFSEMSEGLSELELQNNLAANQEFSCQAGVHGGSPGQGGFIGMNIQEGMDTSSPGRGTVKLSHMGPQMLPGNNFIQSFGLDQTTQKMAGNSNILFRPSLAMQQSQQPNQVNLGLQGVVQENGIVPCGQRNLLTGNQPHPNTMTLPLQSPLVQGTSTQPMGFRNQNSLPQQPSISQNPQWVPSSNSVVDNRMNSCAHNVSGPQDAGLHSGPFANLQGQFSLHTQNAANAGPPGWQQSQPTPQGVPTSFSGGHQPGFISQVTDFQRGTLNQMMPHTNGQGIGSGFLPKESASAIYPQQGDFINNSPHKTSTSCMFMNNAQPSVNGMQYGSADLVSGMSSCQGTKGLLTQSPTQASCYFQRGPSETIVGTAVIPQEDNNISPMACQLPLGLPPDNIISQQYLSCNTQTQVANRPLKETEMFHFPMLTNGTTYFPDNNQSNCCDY
Chain of AhR (Danio rerio, UniProt Q9YGV3) (Q64FF9 1-503 partner): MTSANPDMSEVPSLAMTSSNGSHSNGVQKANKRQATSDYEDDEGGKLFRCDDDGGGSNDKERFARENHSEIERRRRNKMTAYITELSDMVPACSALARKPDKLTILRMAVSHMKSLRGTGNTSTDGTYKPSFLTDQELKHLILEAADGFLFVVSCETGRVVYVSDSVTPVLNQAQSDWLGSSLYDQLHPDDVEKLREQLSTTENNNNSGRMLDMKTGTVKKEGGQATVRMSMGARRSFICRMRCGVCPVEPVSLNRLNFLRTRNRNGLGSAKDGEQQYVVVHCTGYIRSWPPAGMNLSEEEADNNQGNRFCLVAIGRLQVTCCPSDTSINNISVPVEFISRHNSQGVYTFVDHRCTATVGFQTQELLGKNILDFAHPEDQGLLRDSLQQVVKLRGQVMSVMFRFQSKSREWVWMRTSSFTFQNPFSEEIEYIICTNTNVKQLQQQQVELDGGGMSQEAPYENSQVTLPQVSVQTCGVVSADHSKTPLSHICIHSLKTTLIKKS
A general note: A reporter such as luciferase makes a cellular process visible.

The subject of data set [4] is PD-L1 expression in MC38 and CT26 cancer cells. Briefly: PD-L1 expression by FACS in IFNγ-treated colorectal cancer cells. Format: cell-based. As to the method: For analysis of PD-L1 expression in colorectal cancer cells, MC38 in 24-well plates were treated with IFNγ (10 ng/mL) for 24 h and incubated with 5 and 10 μM for 24 h. Cells were collected and stained with APC-conjugated PD-L1 Ab at 4 °C for 30 min (BioLegend). After washing with FACS buffer (Biolegend) three times, the cells were analysed using Becton Dickinson LSRFortessa^TM and analyzed with FlowJo software. Isotype-matched monoclonal antibodies were used as controls. The data were analysed using Flowjo analysis software (FlowJo LLC, Ashland, OR, USA).

The next data set deals with HCT-116 cells. Briefly: Clonogenic assay. Format: cell-based. The settings on record: colorectal cancer cells vs vehicle-treated cells. As to the method: Cells were plated into 6-well plates and left for 48 h. After treatment with 5, 10 μM 7k for 24 h, the drug-containing medium was discarded, and cells were washed twice with PBS and left in complete culture medium for the time corresponding to six doublings. Finally, cells were fixed in 4% Paraformaldehyde (PFA) solution and stained with 0.05% crystal violet.

Data set [5] relates to AhR. Kind of data set: AhR antagonist screening using Tg(cyp1a:egfp) zebrafish. It is filed as in vivo. Also noted: key to AhR Antagonist Activity at 100 nM: - no inhibition; + weak; ++ mild; +++ moderate; ++++ high; +++++ very high. As to the method: At 30 hpf, Tg(cyp1a:egfp) embryos were placed in a 2-mL screw-capped glass vial with five embryos per vial. Each vial contained 1 mL of E3 media (5 mM NaCl, 0.17 mM KCl, 0.33 mM CaCl2·2H2O and 0.4 mM MgCl2·6H2O, pH 7.2) and supplemented with 2 nM TCDD (1746-01-6; AccuStandard Inc., New Haven, NH, USA) dissolved in DMSO. The compounds were subsequently diluted and individually introduced into the vials, achieving a final concentration of 0.1% DMSO. The embryos were then incubated for 48 h and then embryonic EGFP expression was evaluated using a fluorescent stereomicroscope (SteREO Discovery V8; Zeiss, Oberkochen, BW, Germany). As a positive control, StemRegenin1 (72342, […] Technologies, Vancouver, BC, Canada) was employed.
To evaluate AhR antagonistic activity, we conducted an AhR antagonist assay using transgenic zebrafish. Zebrafish have garnered significant attention as model organisms for drug discovery because they share metabolic pathways with mammals. […] Therefore, we synthesized more meta substituted phenyl derivatives. […] We also synthesized heteroaromatic derivatives including pyrimidine and pyridine at 5-position; however, their activities were decreased.

Another data set concerns MC38/Luc cells. Kind of data set: Cytotoxic T lymphocyte (CTL) assay. It is filed as cell-based. The settings on record: splenocytes of treated tumour-bearing mice, effector:target 10:1, luciferase activity. As to the method:
Splenocytes were collected from tumour-bearing mice and stimulated with a cell activation cocktail (BioLegend) for 6 h. MC38/Luc cells as target cells were seeded in black, clear-bottomed 96-well plates (1 × 10^4 cells). After overnight incubation, splenocytes as effectors were added into wells containing target cells at an effector to target ratio of 10:1. LLC/Luc and CT26/Luc cells were used as negative target cells. Eleven hours later, luciferase activity was measured with an IVIS Lumina III instrument (PerkinElmer, Waltham, MA, USA).

Turning to `CC(C)n1cc2nc(-c3cc(F)cc(F)c3)nc(NCCc3c[nH]c4ccccc34)c2n1` [Compound 7k, N-(2-(1H-indol-3-yl)ethyl)-5-(3,5-difluorophenyl)-2-isopropyl-2H-pyrazolo [4,3-d]pyrimidin-7-amine], in data set [1], the “AhR expression in the nucleus” value was “decreased AhR expression in the nucleus”. In data set [2], the “levels of CD8+ IFNγ T lymphocytes” value is recorded as “increased the levels of CD8+ IFNγ T lymphocytes”. At AhR [3], the pIC50 (as a rule, the IC50 on a negative log10 scale, so that one unit is a factor of ten) was 7.86. Besides, in data set [4], the PD-L1 expression entry is “dose-dependent downregulation of PD-L1 expression”. Besides, the colony formation ability entry with HCT-116 cells is given as “significant decrease in the colony formation ability”. Also, the “AhR antagonistic activity in zebrafish, in words” value with AhR [5] (Tg(cyp1a:egfp) zebrafish, EGFP readout) is listed as “significant antagonistic activity against AhR”. Also, the “AhR Antagonist Activity at 100 nM” value in the data set on AhR [5] (extent of GFP reduction in Tg(cyp1a:egfp) zebrafish compared to the TCDD (2 nM) control, 100 nM, 48 h) is on record as “+++++”. Moreover, the “CTL-mediated killing activity against MC38-luc cells” value in the data set with MC38/Luc cells was “minimal killing activity”.
